Results: US9708314B2, “Heterocyclic amide compound” (NISSAN CHEMICAL INDUSTRIES, LTD., priority 2013, dated 2017)

How the values were obtained:
Assay type in all cases: in vivo
Alopecurus myosuroides = experiment: Test Example 4: herbicidal effect by application to foliage (diluvial soil, plastic box); settings: Application herbicide amount 320 g/ha; foliage application
How it was run: (§1)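 Emulsion-formulated compound, diluted to a predetermined g/ha dose, applied by small sprayer to leaves and stems of 14-day-old seedlings grown in sterilized diluvial soil. Effect rated on 0–5 herbicidal-ratio scale three weeks on.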

[1] = tested on: Echinochloa crus-galli var. crus-galli; experiment: as above; settings: Application herbicide amount 320 g/ha; foliage application
How it was run: as §1

Digitaria ciliaris = experiment: as above; settings: Application herbicide amount 320 g/ha; foliage application
How it was run: as §1

Stellaria media = experiment: as above; settings: Application herbicide amount 320 g/ha; foliage application
How it was run: as §1

Galium spurium = experiment: as above; settings: Application herbicide amount 320 g/ha; foliage application
How it was run: as §1

Amaranthus retroflexus = experiment: as above; settings: Application herbicide amount 320 g/ha; foliage application
How it was run: as §1

Avena fatua = experiment: as above; settings: Application herbicide amount 320 g/ha; foliage application
How it was run: as §1

Apera spica-venti. = experiment: as above; settings: Application herbicide amount 320 g/ha; foliage application
How it was run: as §1

Abutilon theophrasti = experiment: as above; settings: Application herbicide amount 320 g/ha; foliage application
How it was run: as §1

Lolium multiflorum Lam. = experiment: as above; settings: Application herbicide amount 320 g/ha; foliage application
How it was run: as §1

Veronica persica = experiment: as above; settings: Application herbicide amount 320 g/ha; foliage application
How it was run: as §1

Chenopodium album = experiment: as above; settings: Application herbicide amount 320 g/ha; foliage application
How it was run: as §1

Setaria viridis = experiment: as above; settings: Application herbicide amount 320 g/ha; foliage application
How it was run: as §1

[2] = tested on: transplanted Oryza sativa; experiment: Test Example 1: effect on crop, application before weed generation in submerged conditions; settings: Application herbicide amount 320 g/ha; Seventeenth Table
How it was run: (§2)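 Rating, on a six-step scale from almost no effect (0) to almost completely withered (5), was made three weeks after pre-emergence treatment. Treatment was surface application to flooded pots at g/ha rates, with plants kept at 25° C. to 30° C.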

Triticum aestivum = experiment: Test Example 4: effect on crop by application to foliage (diluvial soil, plastic box); settings: Application herbicide amount 320 g/ha; foliage application
How it was run: as §1

Glycine max = experiment: as above; settings: Application herbicide amount 320 g/ha; foliage application
How it was run: as §1

Brassica campestris L. = experiment: as above; settings: Application herbicide amount 320 g/ha; foliage application
How it was run: as §1

Zea mays = experiment: as above; settings: Application herbicide amount 320 g/ha; foliage application
How it was run: as §1

[3] = tested on: Beta vulgaris ssp. vulgaris; experiment: as above; settings: Application herbicide amount 320 g/ha; foliage application
How it was run: as §1

Monochoria vaginalis = experiment: Test Example 1: herbicidal activity, application before weed generation in submerged conditions; settings: Application herbicide amount 320 g/ha; Seventeenth Table
How it was run: as §2

Scirpus juncoides = experiment: as above; settings: Application herbicide amount 320 g/ha; Seventeenth Table
How it was run: as §2

[4] = tested on: Echinochloa oryzacola Vasing.; experiment: as above; settings: Application herbicide amount 320 g/ha; Seventeenth Table
How it was run: as §2

SMILES | J (Alopecurus myosuroides) herbicidal effect grade (Alopecurus myosuroides) | H (Echinochloa crus-galli var. crus-galli) herbicidal effect grade [1] | F (Digitaria ciliaris) herbicidal effect grade (Digitaria ciliaris) | P (Stellaria media) herbicidal effect grade (Stellaria media) | Q (Galium spurium) herbicidal effect grade (Galium spurium) | N (Amaranthus retroflexus) herbicidal effect grade (Amaranthus retroflexus) | I (Avena fatua) herbicidal effect grade (Avena fatua) | L (Apera spica-venti.) herbicidal effect grade (Apera spica-venti.) | M (Abutilon theophrasti) herbicidal effect grade (Abutilon theophrasti) | K (Lolium multiflorum Lam.) herbicidal effect grade (Lolium multiflorum Lam.) | O (Chenopodium album) herbicidal effect grade (Chenopodium album) | G (Setaria viridis) herbicidal effect grade (Setaria viridis) | a: transplanted Oryza sativa (effect on crop grade) [2] | e (Triticum aestivum) effect on crop grade (Triticum aestivum) | d (Glycine max) effect on crop grade (Glycine max) | g (Brassica campestris L.) effect on crop grade (Brassica campestris L.) | c (Zea mays) effect on crop grade (Zea mays) | f (Beta vulgaris ssp. vulgaris) effect on crop grade [3] | C: Monochoria vaginalis (herbicidal effect grade) (Monochoria vaginalis) | B: Scirpus juncoides (herbicidal effect grade) (Scirpus juncoides) | other results
CC(C)N(C)c1nnc2c(C(=O)Nc3nnco3)ccc(C(F)(F)F)n12 [1-122] | 3 (Herbicidal ratio of 40% or more and less than 70%) | 5 (Herbicidal ratio of 90% or more (almost completely withered)) | 5 (Herbicidal ratio of 90% or more (almost completely withered)) | 5 (Herbicidal ratio of 90% or more (almost completely withered)) | 4 (Herbicidal ratio of 70% or more and less than 90%) | 5 (Herbicidal ratio of 90% or more (almost completely withered)) | 2 (Herbicidal ratio of 20% or more and less than 40%) | 4 (Herbicidal ratio of 70% or more and less than 90%) | 5 (Herbicidal ratio of 90% or more (almost completely withered)) | 3 (Herbicidal ratio of 40% or more and less than 70%) | 5 (Herbicidal ratio of 90% or more (almost completely withered)) | 5 (Herbicidal ratio of 90% or more (almost completely withered)) | 3 (Herbicidal ratio of 40% or more and less than 70%) | 2 (Herbicidal ratio of 20% or more and less than 40%) | 5 (Herbicidal ratio of 90% or more (almost completely withered)) | 5 (Herbicidal ratio of 90% or more (almost completely withered)) | 2 (Herbicidal ratio of 20% or more and less than 40%) | 5 (Herbicidal ratio of 90% or more (almost completely withered)) | 5 (Herbicidal ratio of 90% or more (almost completely withered)) | 5 (Herbicidal ratio of 90% or more (almost completely withered)) | R (Veronica persica) herbicidal effect grade (Veronica persica): 5 (Herbicidal ratio of 90% or more (almost completely withered)); A: Echinochloa oryzicola Vasing. (herbicidal effect grade) [4]: 5 (Herbicidal ratio of 90% or more (almost completely withered))
CN(c1nnc2c(C(=O)Nc3nnco3)ccc(C(F)(F)F)n12)C1CCCCC1 [1-123] | 0 (Herbicidal ratio of 5% or less (almost no effect)) | 4 (Herbicidal ratio of 70% or more and less than 90%) | 4 (Herbicidal ratio of 70% or more and less than 90%) | 4 (Herbicidal ratio of 70% or more and less than 90%) | 2 (Herbicidal ratio of 20% or more and less than 40%) | 4 (Herbicidal ratio of 70% or more and less than 90%) | 1 (Herbicidal ratio of 5% or more and less than 20%) | 0 (Herbicidal ratio of 5% or less (almost no effect)) | 4 (Herbicidal ratio of 70% or more and less than 90%) | 0 (Herbicidal ratio of 5% or less (almost no effect)) | 5 (Herbicidal ratio of 90% or more (almost completely withered)) | 3 (Herbicidal ratio of 40% or more and less than 70%) | 1 (Herbicidal ratio of 5% or more and less than 20%) | 0 (Herbicidal ratio of 5% or less (almost no effect)) | 3 (Herbicidal ratio of 40% or more and less than 70%) | 3 (Herbicidal ratio of 40% or more and less than 70%) | 0 (Herbicidal ratio of 5% or less (almost no effect)) | 4 (Herbicidal ratio of 70% or more and less than 90%) | 4 (Herbicidal ratio of 70% or more and less than 90%) | 4 (Herbicidal ratio of 70% or more and less than 90%) | R (Veronica persica) herbicidal effect grade (Veronica persica): 3 (Herbicidal ratio of 40% or more and less than 70%); A: Echinochloa oryzicola Vasing. (herbicidal effect grade) [4]: 5 (Herbicidal ratio of 90% or more (almost completely withered))
Cc1nnc(NC(=O)c2ccc(C(F)(F)F)n3c(SCC(F)(F)F)nnc23)o1 [1-124] | 0 (Herbicidal ratio of 5% or less (almost no effect)) | 5 (Herbicidal ratio of 90% or more (almost completely withered)) | 5 (Herbicidal ratio of 90% or more (almost completely withered)) | 3 (Herbicidal ratio of 40% or more and less than 70%) | 2 (Herbicidal ratio of 20% or more and less than 40%) | 4 (Herbicidal ratio of 70% or more and less than 90%) | 2 (Herbicidal ratio of 20% or more and less than 40%) | 1 (Herbicidal ratio of 5% or more and less than 20%) | 5 (Herbicidal ratio of 90% or more (almost completely withered)) | 0 (Herbicidal ratio of 5% or less (almost no effect)) | 5 (Herbicidal ratio of 90% or more (almost completely withered)) | 3 (Herbicidal ratio of 40% or more and less than 70%) | 0 (Herbicidal ratio of 5% or less (almost no effect)) | 0 (Herbicidal ratio of 5% or less (almost no effect)) | 3 (Herbicidal ratio of 40% or more and less than 70%) | 0 (Herbicidal ratio of 5% or less (almost no effect)) | 1 (Herbicidal ratio of 5% or more and less than 20%) | 3 (Herbicidal ratio of 40% or more and less than 70%) | 1 (Herbicidal ratio of 5% or more and less than 20%) | 3 (Herbicidal ratio of 40% or more and less than 70%) | R (Veronica persica) herbicidal effect grade (Veronica persica): 2 (Herbicidal ratio of 20% or more and less than 40%); A: Echinochloa oryzicola Vasing. (herbicidal effect grade) [4]: 3 (Herbicidal ratio of 40% or more and less than 70%)
COCCN(C)c1nnc2c(C(=O)Nc3nnc(C)o3)ccc(C(F)(F)F)n12 [1-129] | 1 (Herbicidal ratio of 5% or more and less than 20%) | 5 (Herbicidal ratio of 90% or more (almost completely withered)) | 4 (Herbicidal ratio of 70% or more and less than 90%) | 5 (Herbicidal ratio of 90% or more (almost completely withered)) | 0 (Herbicidal ratio of 5% or less (almost no effect)) | 4 (Herbicidal ratio of 70% or more and less than 90%) | 2 (Herbicidal ratio of 20% or more and less than 40%) | 1 (Herbicidal ratio of 5% or more and less than 20%) | 3 (Herbicidal ratio of 40% or more and less than 70%) | 1 (Herbicidal ratio of 5% or more and less than 20%) | 5 (Herbicidal ratio of 90% or more (almost completely withered)) | 4 (Herbicidal ratio of 70% or more and less than 90%) | 1 (Herbicidal ratio of 5% or more and less than 20%) | 1 (Herbicidal ratio of 5% or more and less than 20%) | 4 (Herbicidal ratio of 70% or more and less than 90%) | 3 (Herbicidal ratio of 40% or more and less than 70%) | 2 (Herbicidal ratio of 20% or more and less than 40%) | 5 (Herbicidal ratio of 90% or more (almost completely withered)) | 3 (Herbicidal ratio of 40% or more and less than 70%) | 4 (Herbicidal ratio of 70% or more and less than 90%) | A: Echinochloa oryzicola Vasing. (herbicidal effect grade) [4]: 5 (Herbicidal ratio of 90% or more (almost completely withered))
